{"source": "paper PMC9238271", "about": "“The quorum sensing peptide EntF* promotes colorectal cancer metastasis in mice: a new factor in the host-microbiome interaction” (BMC Biology, 2022)", "key": {"[1]": {"assay": "Formation of EntF* from EntF in HBSS (buffer)", "type": "in vitro ADME", "conditions": "for Formation rate, HBSS: EntF in HBSS; for EntF* Conc formed from EntF / EntF* without metabolisation, Conc / EntF*/EntF: single run"}, "[2]": {"assay": "EntF production in germ-free mice: EntF* in colon content and serum", "type": "in vivo, germ-free female C57BL6 mice", "experimental": "Fifty microliters of serum were mixed with 150 μL 0.5% formic acid in acetonitrile. After sonication for 5 min, samples were vortexed for 5 s, then heated for 30 s at 100 °C. The solution was vortexed and centrifuged for 20 min at 20,000g at 4 °C. The supernatant was purified using solid phase extraction (SPE) on HyperSep C18 plates (Thermo Fisher Scientific, Belgium), previously conditioned with acetonitrile and equilibrated with 75% acetonitrile in water, containing 0.375% formic acid. After loading 150 μL of each sample, 120 μL eluent were collected and organic solvents evaporated using nitrogen (1 L/min) for 5 min. The resulting samples were further diluted with 30 μL of BSA-based anti-adsorption solution, and analyzed by LC-MS.\nFor EntF and EntF* colon content analysis, 50 mg of colon content were suspended in 100 μL of a 2% hydrochloric acid solution, vortexed and sonicated for 30 s. The suspension was centrifuged for 1 min at 3000g, and 50 μL of the supernatant was heated at 100 °C for 1 min and cooled on ice for 1 min. Samples were centrifuged again for 1 min at 10,000g, and 30 μL of supernatant was added to a 900 μL of a 3% DMSO solution in acetonitrile acidified with 0.1% formic acid (equilibration solution). Nine hundred microliters of the diluted samples was loaded on a HILIC amide SPE MonoSpin column previously conditioned with acetonitrile and equilibrated with the equilibration solution. Samples were eluted using a mixture of 75/20/5 (V/V/V) H2O/acetonitrile/DMSO acidified with 0.1% formic acid.\nEntF* was detected and quantified on a Waters Acquity® UPLC H-class system, connected to a Waters Xevo™ TQ-S triple quadrupole mass spectrometer with electrospray ionization (operated in positive ionization mode). Autosampler tray and column oven were kept at 10 ± 5 °C and 60 ± 5 °C, respectively. Chromatographic separation was achieved on a Waters Acquity® UPLC BEH Peptide C18 column (300 Å, 1.7 μm, 2.1 mm × 100 mm). The mobile phases consisted of 93/2/5 water/acetonitrile/DMSO (V/V/V) containing 0.1% formic acid (mobile phase A) and 2/93/5 water/acetonitrile/DMSO (V/V/V) containing 0.1% formic acid (mobile phase B), and the flow rate was set to 0.5 mL/min. A 10-μL aliquot from each sample was injected. The gradient program started with 80% of mobile phase A for 1 min, followed by a linear gradient to 40% of mobile phase A for 3.5 min. Gradient was then changed to 14.2% mobile phase A at 5 min, followed by a 1 min equilibration, before starting conditions were applied. EntF* retention time was between 4.25 and 4.45 min.\nMice were obtained from the Ghent Germfree and Gnotobiotic mouse facility (LA1400637), maintained in a sterile environment under controlled conditions (light–dark cycle with light from 7:00 h to 17:00 h, temperature 21–25 °C, and humidity 45–65%). Twelve germ-free female C57BL6 mice were divided into 3 groups and each group (n = 4) was kept in a separate cage. At day 0, the placebo group was treated with the cell medium (BHI), the control group received a mixture of 3 EntF-negative E. faecium strains (NCIMB 10415; W54 and LMG S-28935 each 10^8 CFU per strain) suspended in 300 μL of BHI, while the test group received a mixture of 3 EntF-producing E. faecium strains (LMG 23236; T-110 and ATCC 8459 each 10^8 CFU/strain) suspended in 300 μL of BHI. […] Serum samples were stored at − 80 °C and subsequently analyzed for the presence of EntF* using LC1-MS1. […] Samples were further analyzed for the presence of EntF* using LC1-MS1."}, "[3]": {"conditions": "HBSS, initial concentration EntF 31.82 µM, time 0"}, "[4]": {"conditions": "HBSS, initial concentration EntF 31.82 µM, time 1"}, "[5]": {"conditions": "HBSS, initial concentration EntF 31.82 µM, time 5"}, "[6]": {"conditions": "HBSS, initial concentration EntF 31.82 µM, time 10"}, "[7]": {"conditions": "HBSS, initial concentration EntF 31.82 µM, time 30"}, "[8]": {"conditions": "HBSS, initial concentration EntF 31.82 µM, time 60"}, "[9]": {"conditions": "HBSS, initial concentration EntF 31.82 µM, time 120"}, "[10]": {"conditions": "HBSS, initial concentration EntF 31.82 µM, time 180"}}, "data": [{"smiles": "CC(C)C[C@@H]1NC(=O)[C@H](CO)NC(=O)[C@H](Cc2ccccc2)NC(=O)[C@H](C(C)C)NC(=O)[C@@H](NC(=O)[C@H](CCC(=O)O)NC(=O)[C@@H](NC(=O)[C@H](CC(C)C)NC(=O)[C@H](CC(N)=O)NC(=O)[C@@H](N)CO)C(C)C)CSSC[C@@H](C(=O)N[C@@H](CC(N)=O)C(=O)O)NC(=O)[C@H](CCCCN)NC(=O)[C@H](CCCCN)NC(=O)[C@H](Cc2ccccc2)NC1=O", "note": "(single isomer, unassigned) [EntF*]", "values": [{"measurement": "Formation rate, HBSS", "setting": "[1]; value X1", "result": 0.0321, "unit": "%*min-1"}, {"measurement": "Formation rate, HBSS", "setting": "[1]; value X2", "result": 0.0130, "unit": "%*min-1"}, {"measurement": "Formation rate, HBSS", "setting": "[1]; value X3", "result": 0.0600, "unit": "%*min-1"}, {"measurement": "Formation rate, HBSS", "setting": "[1]; value X4", "result": 0.0499, "unit": "%*min-1"}, {"measurement": "Formation rate, HBSS", "setting": "[1]; value X5", "result": 0.0573, "unit": "%*min-1"}, {"measurement": "Formation rate, HBSS", "setting": "[1]; value X6", "result": 0.0440, "unit": "%*min-1"}, {"measurement": "Formation rate, HBSS", "setting": "[1]; value X7", "result": 0.0469, "unit": "%*min-1"}, {"measurement": "Rico, Average", "setting": "[1]; HBSS, initial concentration EntF 31.82 µM, average over the time points 1-180", "result": 0.0433, "unit": "%*min-1"}, {"measurement": "EntF* Conc formed from EntF", "setting": "[1]; [3]", "result": 0.00, "unit": "µM"}, {"measurement": "EntF* without metabolisation, Conc", "setting": "[1]; [3]", "result": 0.00, "unit": "µM"}, {"measurement": "EntF* without metabolisation, Conc", "setting": "[1]; [4]", "result": 0.01, "unit": "µM"}, {"measurement": "EntF*/EntF", "setting": "[1]; [4]", "result": 0.0321, "unit": "%"}, {"measurement": "EntF* Conc formed from EntF", "setting": "[1]; [5]", "result": 0.02, "unit": "µM"}, {"measurement": "EntF* without metabolisation, Conc", "setting": "[1]; [5]", "result": 0.02, "unit": "µM"}, {"measurement": "EntF*/EntF", "setting": "[1]; [5]", "result": 0.0652, "unit": "%"}, {"measurement": "EntF* Conc formed from EntF", "setting": "[1]; [6]", "result": 0.19, "unit": "µM"}, {"measurement": "EntF* without metabolisation, Conc", "setting": "[1]; [6]", "result": 0.19, "unit": "µM"}, {"measurement": "EntF*/EntF", "setting": "[1]; [6]", "result": 0.60, "unit": "%"}, {"measurement": "EntF* Conc formed from EntF", "setting": "[1]; [7]", "result": 0.48, "unit": "µM"}, {"measurement": "EntF* without metabolisation, Conc", "setting": "[1]; [7]", "result": 0.48, "unit": "µM"}, {"measurement": "EntF*/EntF", "setting": "[1]; [7]", "result": 1.50, "unit": "%"}, {"measurement": "EntF* Conc formed from EntF", "setting": "[1]; [8]", "result": 1.09, "unit": "µM"}, {"measurement": "EntF* without metabolisation, Conc", "setting": "[1]; [8]", "result": 1.09, "unit": "µM"}, {"measurement": "EntF*/EntF", "setting": "[1]; [8]", "result": 3.44, "unit": "%"}, {"measurement": "EntF* Conc formed from EntF", "setting": "[1]; [9]", "result": 1.68, "unit": "µM"}, {"measurement": "EntF* without metabolisation, Conc", "setting": "[1]; [9]", "result": 1.68, "unit": "µM"}, {"measurement": "EntF*/EntF", "setting": "[1]; [9]", "result": 5.28, "unit": "%"}, {"measurement": "EntF* Conc formed from EntF", "setting": "[1]; [10]", "result": 2.69, "unit": "µM"}, {"measurement": "EntF* without metabolisation, Conc", "setting": "[1]; [10]", "result": 2.69, "unit": "µM"}, {"measurement": "EntF*/EntF", "setting": "[1]; [10]", "result": 8.45, "unit": "%"}, {"measurement": "stability of EntF* in HBSS", "setting": "[1]; HBSS, remark in sheet HBSS", "result": "EntF* is stable in HBSS"}, {"measurement": "tissue level at time molar at 96 h", "setting": "[2]; female, C57BL6, mouse, colon content, germ-free mice four days after oral gavage of 3 EntF-producing E. faecium strains (10^8 CFU/strain), LoD 1.9 pmol/g, LC1-MS1, mean ± SEM, n = 4, read-out: EntF* concentration in colon content", "result": "0.01 ± 0.0032", "unit": "nmol/g"}, {"measurement": "EntF* in serum of the test group", "setting": "[2]; germ-free mice four days after oral gavage of EntF-producing E. faecium strains, LC1-MS1", "result": "detected"}, {"measurement": "EntF* in feces, Tot. Av.", "setting": "[2]; gnotobiotic mice, feces, mean of 4 test mice", "result": 9.726, "unit": "pmol/g"}, {"measurement": "EntF* serum concentration, Maximum Likelihood Function estimate ^µ", "setting": "[2]; gnotobiotic mice, serum, 4 test mice, censored at yL 80 pM", "result": 90.7384, "unit": "pM"}, {"measurement": "EntF* serum concentration, average", "setting": "[2]; gnotobiotic mice, serum, average of the 3 test mice above LoD", "result": 97.3333, "unit": "pM"}]}]}
